Article PMC5374710, “Discovery of the first dual GSK3β inhibitor/Nrf2 inducer. A new multitarget therapeutic strategy for Alzheimer’s disease” (Scientific Reports, 2017)

Assays:
TNFα = TNFα release induced by LPS in mixed glial cells (ELISA); format: cell-based, rat; settings: LPS 1 μg/mL
Procedure: TNFα is considered one of the most important pro-inflammatory cytokines. […] The production of TNFα induced by LPS was reduced by 33% at 10 μM and by 50% at 30 μM. […] To further confirm the anti-inflammatory potential of compound 5c we measured the expression of thre NOX2 enzyme, since this isoform has been widely described as being specific tomicroglial cells. As depicted in Fig. 6F, LPS (1 μg/mL) stimulation of primary glial cultures during 24 h increased the expression of NOX2 by 65.3% (p < 0.01) compared to basal conditions.
Figure 6 Nitrites (A), TNFα (B), iNOS (C) and NOX activity (E) blockade (D) and NOX2 production (F) by 5c in primary glial cultures stimulated with LPS (1 μg/mL), HO-1 expression induced by this compound after 24 h. […] NOX activity was measured after 4 h co-treatment with LPS and compound 5c. […]
Tumor necrosis factor-alpha (TNFα) concentrations were measured by specific quantitative sandwich ELISA kits (Preprotech, R&D Systems-bioNova, Madrid, Spain) following manufacturer instructions. TNFα levels in supernatant samples, obtained after treatments with culture media (Basal), LPS or LPS co-incubated with increasing concentrations of compound 5c, were measured following manufacturer instructions. […] Light absorption was measured in a microplate reader (Labtech, Offenburg, Germany). […]

HO-1 = HO-1 expression in AREc32 cells after scramble or GSK3β siRNA (western blot); format: cell-based, human; settings: 10 μM, 24 h
Procedure: To further evaluate the potential relationship between GSK3β inhibition and the Nrf2 induction properties we used two different approaches. […] Cells were treated with compound 5m at increasing concentrations alone or in presence of Li (10 mM) during 24 h and thereafter, luciferase activity was evaluated. […] Secondly, to corroborate the independence of the Nrf2 induction properties of our derivatives from their GSK3β inhibitory properties, we used GSK3β knock down experimental conditions using siRNA. […] After knockdown of GSK3β, AREc32 cells were incubated with compound 5m (10 μM) during 24 h (Fig. 4B). Subsequently, luciferase activity and HO-1 expression were analyzed. […] Similar results were obtained when HO-1 expression was analyzed (Fig. 4D), compound 5m increased HO-1 expression 3.9 times after scramble treatment and 3.5 times after knockdown of GSK3β showing no statistical differences between both conditions. […]
Figure 4 Nrf2 induction properties are independent of the GSK3β inhibitory activity. […] (D) HO-1 expression induced by compound 5m (10 μM) measured at the same experimental conditions used previously. Values are expressed as mean ± SEM of three independent experiments in duplicate. ^###p < 0.001; ^##p < 0.01; ^#p < 0.05 compared to the correspondent basal conditions. […]

In the case of `COc1cccc(C2C(C#N)=C(N)Oc3n[nH]c(C)c32)c1` (stereo not shown) [Compound 5c, 6-Amino-4-(3-methoxyphenyl)-3-methyl-2,4-dihydropyrano[2,3-c]pyrazole-5-carbonitrile], the “Reduction of TNFα production induced by LPS” value (TNFα; 10 μM) was 33% and the “Reduction of TNFα production induced by LPS” value (TNFα; 30 μM) was 50%.

Work on `Cc1[nH]nc2c1C(c1ccc(Br)cc1)C(C#N)=C(N)O2` (stereo not shown) [Compound 5m, 6-Amino-4-(4-bromophenyl)-3-methyl-2,4-dihydropyrano[2,3-c]pyrazole-5-carbonitrile] yielded an HO-1 expression increase (HO-1; after knockdown of GSK3β) of 3.5 times and an HO-1 expression increase (HO-1; after scramble treatment) of 3.9 times.
